Reference: patent US8053574B2, “Organic compounds” (Novartis AG, priority 2007, dated 2011)

Target: PI3K γ (Homo sapiens, UniProt P48736)
Assay: PI3 kinase phosphorylation assay (Biological Method 1), Ki γ
Type: biochemical
Conditions: Table 1, compounds of formula X
Description: The compounds of the invention were synthesized according to the examples provided above. PI3K inhibitory (IC50) values of the compounds were determined according to Biological Method 1.
Assay 1: Homogenous Solution Phase Assay
Compounds to be tested are dissolved in DMSO and directly distributed into 384-well flashplates at 1.25 μL per well. To start the reaction, 20 μL of 6 nM PI3 kinase are added into each well followed by 20 μL of 400 nM ATP containing a trace of radiolabeled ATP and 900 nM 1-alpha-phosphatidylinositol (PI). The plates are briefly centrifuged to remove any air gap. The reaction is performed for 15 minutes and then stopped by the addition of 20 μL of 100 mM EDTA. The stopped reaction is incubated overnight at RT to allow the lipid substrate to bind by hydrophobic interaction to the surface of the flashplate. The liquid in the wells is then washed away, and the labeled substrate is detected with scintillation counting.
Assay 2: One Step Solid Phase Assay
This method is similar to Assay 1 except that the lipid substrate (1-alpha-phosphatidylinositol (PI)) is first dissolved in a coating buffer and incubated on flashplate at room temperature overnight to allow the lipid substrate to bind by hydrophobic interaction to the surface of the flashplate. Unbound substrate is then washed away. On the day of assay, 20 μL of 6 nM PI3 kinase are added into each well followed by 20 μL of 400 nM ATP containing trace of radiolabeled ATP. Compounds are added together with enzyme and ATP to the lipid-coated plates. The plates are briefly centrifuged to remove any air gap. The reaction is performed for two to three hours. The reaction is stopped by addition of 20 μL of 100 mM EDTA or by immediate plate washing. Phosphorylated lipid substrate is detected by scintillation counting.
Assay 3: ATP Depletion Assay
Compounds to be tested are dissolved in DMSO and directly distributed into a black 384-well plate at 1.25 μL per well. To start the reaction, 25 μL of 10 nM PI3 kinase and 5 μg/mL 1-alpha-phosphatidylinositol (PI) are added into each well followed by 25 μL of 2 μM ATP. The reaction is performed until approx 50% of the ATP is depleted, and then stopped by the addition of 25 μL of KinaseGlo solution. The stopped reaction is incubated for 5 minutes and the remaining ATP is then detected via luminescence.

Sequence of PI3K γ (P48736 whole entry): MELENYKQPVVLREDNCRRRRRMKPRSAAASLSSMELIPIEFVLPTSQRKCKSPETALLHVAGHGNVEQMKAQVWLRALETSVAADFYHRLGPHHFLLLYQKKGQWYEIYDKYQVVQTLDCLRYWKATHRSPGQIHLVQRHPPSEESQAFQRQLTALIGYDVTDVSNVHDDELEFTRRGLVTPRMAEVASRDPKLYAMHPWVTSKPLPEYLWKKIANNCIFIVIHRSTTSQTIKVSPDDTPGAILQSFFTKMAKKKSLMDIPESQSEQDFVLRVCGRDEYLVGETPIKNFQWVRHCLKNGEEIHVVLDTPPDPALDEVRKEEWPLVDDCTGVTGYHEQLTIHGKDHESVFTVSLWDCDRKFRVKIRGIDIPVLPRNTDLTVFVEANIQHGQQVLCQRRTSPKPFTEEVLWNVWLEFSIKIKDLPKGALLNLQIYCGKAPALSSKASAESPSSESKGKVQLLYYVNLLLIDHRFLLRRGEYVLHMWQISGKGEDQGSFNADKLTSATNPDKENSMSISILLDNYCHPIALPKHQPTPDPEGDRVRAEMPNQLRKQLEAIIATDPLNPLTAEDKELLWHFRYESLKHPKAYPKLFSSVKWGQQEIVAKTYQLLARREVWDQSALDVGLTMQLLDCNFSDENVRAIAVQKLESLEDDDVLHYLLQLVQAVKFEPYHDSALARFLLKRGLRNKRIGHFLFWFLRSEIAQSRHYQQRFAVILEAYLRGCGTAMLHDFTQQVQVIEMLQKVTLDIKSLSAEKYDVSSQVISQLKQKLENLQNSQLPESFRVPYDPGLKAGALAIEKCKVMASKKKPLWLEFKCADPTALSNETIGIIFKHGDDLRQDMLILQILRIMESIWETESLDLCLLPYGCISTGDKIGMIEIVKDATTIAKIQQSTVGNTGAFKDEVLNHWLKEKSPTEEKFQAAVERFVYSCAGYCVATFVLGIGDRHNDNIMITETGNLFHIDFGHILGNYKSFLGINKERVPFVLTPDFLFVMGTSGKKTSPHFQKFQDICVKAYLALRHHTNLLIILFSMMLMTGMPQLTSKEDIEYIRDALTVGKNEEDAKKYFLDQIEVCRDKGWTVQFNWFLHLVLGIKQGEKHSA

Ki [µM]	Compound
0.204	CCn1nnc(CCNC(=O)Nc2cn3cc(-c4cc(Cl)cc(OC)c4)ccc3n2)n1
0.735	CCn1nnc(CCNC(=O)Nc2cn3cc(-c4cnn(Cc5ccccc5)c4)ccc3n2)n1
0.014	CC(C)n1nnc(CCNC(=O)Nc2cn3cc(-c4cncc(S(C)(=O)=O)c4)ccc3n2)n1

Same assay, conditions: Table 2, compounds of formula X

Compound	Ki [µM]
1-[2-(2-Isopropyl-2H-tetrazol-5-yl)-ethyl]-3-(6-quinolin-3-yl-imidazo[1,2-a]pyridin-2-yl)-urea [Example 1-49]	0.57
CC(C)n1nnc(CCNC(=O)Nc2cn3cc(-c4ccncc4)ccc3n2)n1 [Example 1-2, 1-[2-(2-Isopropyl-2H-tetrazol-5-yl)-ethyl]-3-(6-pyridin-4-yl-imidazo[1,2-a]pyridin-2-yl)-urea]	0.135
CC(C)n1nnc(CCNC(=O)Nc2cn3cc(-c4cncnc4)ccc3n2)n1 [Example 1-4, 1-[2-(2-Isopropyl-2H-tetrazol-5-yl)-ethyl]-3-(6-pyrimidin-5-yl-imidazo[1,2-a]pyridin-2-yl)-urea]	0.165
CCn1nnc(CCNC(=O)Nc2cn3cc(-c4ccc5c(c4)OCO5)ccc3n2)n1 [Example 1-8, 1-(6-Benzo[1,3]dioxol-5-yl-imidazo[1,2-a]pyridin-2-yl)-3-[2-(2-ethyl-2H-tetrazol-5-yl)-ethyl]urea]	0.303
CCn1nnc(CCNC(=O)Nc2cn3cc(-c4cccc(C(F)(F)F)c4)ccc3n2)n1 [Example 1-9, 1-[2-(2-Ethyl-2H-tetrazol-5-yl)-ethyl]-3-[6-(3-trifluoromethyl-phenyl)-imidazo[1,2-a]pyridin-2-yl]-urea]	0.24
CC(C)n1nnc(CCNC(=O)Nc2cn3cc(-c4cncc(OC5CCOCC5)c4)ccc3n2)n1 [Example 1-13, 1-[2-(2-Isopropyl-2H-tetrazol-5-yl)-ethyl]-3-{6-[5-(tetrahydro-pyran-4-yloxy)-pyridin-3-yl}-imidazo[1,2-a]pyridin-2-yl]-urea]	0.147
CCn1nnc(CCNC(=O)Nc2cn3cc(-c4cc(Cl)ccc4OC)ccc3n2)n1 [Example 1-14, 1-[6-(5-Chloro-2-methoxy-phenyl)-imidazo[1,2-a]pyridin-2-yl]-3-[2-(2-ethyl-2H-tetrazol-5-yl)-ethyl]urea]	0.204
CC(C)(C)NC(=O)CCNC(=O)Nc1cn2cc(-c3cncc(-c4ccccc4)c3)ccc2n1 [Example 1-15, N-tert-Butyl-3-{3-[6-(5-phenyl-pyridin-3-yl)-imidazo[1,2-a]pyridin-2-yl]ureido}-propionamide]	0.207
CC(C)n1nnc(CCNC(=O)Nc2cn3cc(-c4cncc(-c5ccccc5)c4)ccc3n2)n1 [Example 1-16, 1-[2-(2-Isopropyl-2H-tetrazol-5-yl)-ethyl]-3-[6-(5-phenyl-pyridin-3-yl)-imidazo[1,2-a]pyridin-2-yl]urea]	0.24
COCCOCCOc1cncc(-c2ccc3nc(NC(=O)NCCc4nnn(C(C)C)n4)cn3c2)c1 [Example 1-17, 1-[2-(2-Isopropyl-2H-tetrazol-5-yl)-ethyl]-3-(6-{5-[2-(2-methoxy-ethoxy)-ethoxy]-pyridin-3-yl}-imidazo[1,2-a]pyridin-2-yl)-urea]	0.268
CC(C)(C)NC(=O)CCNC(=O)Nc1cn2cc(-c3cncc(OC4CCOCC4)c3)ccc2n1 [Example 1-18, N-tert-Butyl-3-(3-{6-[5-(tetrahydro-pyran-4-yloxy)-pyridin-3-yl]-imidazo[1,2-a]pyridin-2-yl}-ureido)-propionamide]	0.397
COc1ccc(-c2ccc3nc(NC(=O)NCCc4nnn(C(C)C)n4)cn3c2)cn1 [Example 1-19, 1-[2-(2-Isopropyl-2H-tetrazol-5-yl)-ethyl]-3-[6-(6-methoxy-pyridin-3-yl)-imidazo[1,2-a]pyridin-2-yl]-urea]	0.301
Cc1ccc(-c2ccc3nc(NC(=O)NCCc4nnn(C(C)C)n4)cn3c2)cn1 [Example 1-24, 1-[2-(2-Isopropyl-2H-tetrazol-5-yl)-ethyl]-3-[6-(6-methyl-pyridin-3-yl)-imidazo[1,2-a]pyridin-2-yl]urea]	0.113
CCc1nnn(CCNC(=O)Nc2cn3cc(-c4cncc(C#N)c4)ccc3n2)n1 [Example 1-26, 1-[6-(5-Cyano-pyridin-3-yl)-imidazo[1,2-a]pyridin-2-yl]-3-[2-(5-ethyl-tetrazol-2-yl)-ethyl]-urea]	0.115
CC(C)n1nnc(CCNC(=O)Nc2cn3cc(-c4cccc(F)c4)ccc3n2)n1 [Example 1-28, 1-[6-(3-Fluoro-phenyl)-imidazo[1,2-a]pyridin-2-yl]-3-[2-(2-isopropyl-2H-tetrazol-5-yl)-ethyl]urea]	0.836
COc1cccc(-c2ccc3nc(NC(=O)NCCc4nnn(C(C)C)n4)cn3c2)c1 [Example 1-29, 1-[2-(2-Isopropyl-2H-tetrazol-5-yl)-ethyl]-3-[6-(3-methoxy-phenyl)-imidazo[1,2-a]pyridin-2-yl]-u]	1.03
CCn1nnc(CCNC(=O)Nc2cn3cc(-c4cnc5ccccc5c4)ccc3n2)n1 [Example 1-30, 1-[2-(2-Ethyl-2H-tetrazol-5-yl)-ethyl]-3-(6-quinolin-3-yl-imidazo[1,2-a]pyridin-2-yl)-urea]	0.57
CC(C)n1nnc(CCNC(=O)Nc2cn3cc(-c4ccccc4)ccc3n2)n1 [Example 1-31, 1-[2-(2-Isopropyl-2H-tetrazol-5-yl)-ethyl]-3-(6-phenyl-imidazo[1,2-a]pyridin-2-yl)-urea]	0.423

Results, then the compound that gave them:

Ki [µM]	Compound
0.04	CC(C)n1nnc(CCNC(=O)Nc2cn3cc(-c4cncc(C#N)c4)ccc3n2)n1 [Example 1-3, 1-[6-(5-Cyano-pyridin-3-yl)-imidazo[1,2-a]pyridin-2-yl]-3-[2-(2-isopropyl-2H-tetrazol-5-yl)-ethyl]-urea]
0.048	CCOc1cncc(-c2ccc3nc(NC(=O)NCCc4nnn(C(C)C)n4)cn3c2)c1 [Example 1-6, 1-[6-(5-Ethoxy-pyridin-3-yl)-imidazo[1,2-a]pyridin-2-yl]-3-[2-(2-isopropyl-2H-tetrazol-5-yl)-ethyl]-urea]
0.018	CC(C)n1nnc(CCNC(=O)Nc2cn3cc(-c4cncc(C(F)(F)F)c4)ccc3n2)n1 [Example 1-7, 1-[2-(2-Isopropyl-2H-tetrazol-5-yl)-ethyl]-3-[6-(5-trifluoromethyl-pyridin-3-yl)-imidazo[1,2-a]pyridin-2-yl]-urea]
0.05	CC(C)n1nnc(CCNC(=O)Nc2cn3cc(-c4cncc(Cl)c4)ccc3n2)n1 [Example 1-12, 1-[6-(5-Chloro-pyridin-3-yl)-imidazo[1,2-a]pyridin-2-yl]-3-[2-(2-isopropyl-2H-tetrazol-5-yl)-ethyl]urea]
0.075	COc1ccc(-c2ccc3nc(NC(=O)NCCc4nnn(CCF)n4)cn3c2)cn1 [Example 1-20, 1-[2-[2-(2-Fluoro-ethyl)-2H-tetrazol-5-yl]-ethyl]-3-[6-(6-methoxy-pyridin-3-yl)-imidazo[1,2-a]pyridin-2-yl]-urea]
0.014	CCn1nnc(CNC(=O)Nc2cn3cc(-c4cncc(C(F)(F)F)c4)ccc3n2)n1 [Example 1-21, 1-(2-Ethyl-2H-tetrazol-5-ylmethyl)-3-[6-(5-trifluoromethyl-pyridin-3-yl)-imidazo[1,2-a]pyridin-2-yl]urea]
0.025	CCc1cncc(-c2ccc3nc(NC(=O)NCCc4nnn(C(C)C)n4)cn3c2)c1 [Example 1-22, 1-[6-(5-Ethyl-pyridin-3-yl)-imidazo[1,2-a]pyridin-2-yl]-3-[2-(2-isopropyl-2H-tetrazol-5-yl)-ethyl]-urea]
0.028	CCn1cnc(CCNC(=O)Nc2cn3cc(-c4cncc(C(F)(F)F)c4)ccc3n2)c1 [Example 1-23, 1-[2-(1-Ethyl-1H-imidazol-4-yl)-ethyl]-3-[6-(5-trifluoromethyl-pyridin-3-yl)-imidazo[1,2-a]pyridin-2-yl]-urea]
0.026	CCc1nnn(CCNC(=O)Nc2cn3cc(-c4cncc(C(F)(F)F)c4)ccc3n2)n1 [Example 1-25, 1-[2-(5-Ethyl-tetrazol-2-yl)-ethyl]-3-[6-(5-trifluoromethyl-pyridin-3-yl)-imidazo[1,2-a]pyridin-2-yl]urea]
0.028	O=C(NCCn1nnc(C2CC2)n1)Nc1cn2cc(-c3cncc(C(F)(F)F)c3)ccc2n1 [Example 1-27, 1-[2-(5-Cyclopropyl-tetrazol-2-yl)-ethyl]-3-[6-(5-trifluoromethyl-pyridin-3-yl)-imidazo[1,2-a]pyridin-2-yl]-urea]
0.007	CCn1nnc(CCNC(=O)Nc2cn3cc(-c4cncc(C(F)(F)F)c4)ccc3n2)n1 [Example 1-34, 1-[2-(2-Ethyl-2H-tetrazol-5-yl)-ethyl]-3-[6-(5-trifluoromethyl-pyridin-3-yl)-imidazo[1,2-a]pyridin-2-yl]-urea]
